pIC50: −log10 of the molar value.
System: 885512-296-R-J2-PDC complex spheroid viability
Experiment: Anticancer human tumor 885512-296-R-J2-PDC patient-derived breast carcinoma cell line growth inhibition [GQUAD]
Conditions: for pIC50: curve of first compound; for viability, T/C: stronger effect = lower value
How it was run: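 Viability of tumor cells grown as complex spheroids with endothelial and stromal cells, exposed to drug combinations. Top concentration at or near clinical Cmax (else 10 microM), diluted in half-log increments.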

[1] = second compound 0.0316 µM, first compound 0.0316 µM
[2] = second compound 0.0316 µM, first compound 0.1 µM
[3] = second compound 0.0316 µM, first compound 0.316 µM
[4] = second compound 0.0316 µM, first compound 1 µM
[5] = second compound 0.0316 µM, first compound 3.16 µM
[6] = second compound 0.0316 µM, first compound 10 µM
[7] = second compound 0.1 µM, first compound 0.0316 µM
[8] = second compound 0.1 µM, first compound 0.1 µM
[9] = second compound 0.1 µM, first compound 0.316 µM
[10] = second compound 0.1 µM, first compound 1 µM
[11] = second compound 0.1 µM, first compound 3.16 µM
[12] = second compound 0.1 µM, first compound 10 µM
[13] = second compound 0.316 µM, first compound 0.0316 µM
[14] = second compound 0.316 µM, first compound 0.1 µM
[15] = second compound 0.316 µM, first compound 0.316 µM
[16] = second compound 0.316 µM, first compound 1 µM
[17] = second compound 0.316 µM, first compound 3.16 µM
[18] = second compound 0.316 µM, first compound 10 µM
[19] = second compound 1 µM, first compound 0.0316 µM
[20] = second compound 1 µM, first compound 0.1 µM
[21] = second compound 1 µM, first compound 0.316 µM
[22] = second compound 1 µM, first compound 1 µM
[23] = second compound 1 µM, first compound 3.16 µM
[24] = second compound 1 µM, first compound 10 µM
[25] = second compound 3.16 µM, first compound 0.0316 µM
[26] = second compound 3.16 µM, first compound 0.1 µM
[27] = second compound 3.16 µM, first compound 0.316 µM
[28] = second compound 3.16 µM, first compound 1 µM
[29] = second compound 3.16 µM, first compound 3.16 µM
[30] = second compound 3.16 µM, first compound 10 µM
[31] = second compound 10 µM, first compound 0.0316 µM
[32] = second compound 10 µM, first compound 0.1 µM
[33] = second compound 10 µM, first compound 0.316 µM
[34] = second compound 10 µM, first compound 1 µM
[35] = second compound 10 µM, first compound 3.16 µM
[36] = second compound 10 µM, first compound 10 µM
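Note: spheroids exposed to the compounds for one week.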
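Throughout, for viability, T/C: percent of tumor spheroid viability relative to DMSO vehicle control wells.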

For `COc1cccc2c1C(=O)c1c(O)c3c(c(O)c1C2=O)CC(O)(C(=O)CO)CC3OC1CC(N)C(O)C(C)O1` (stereo unspecified) + Cc1cnc(CNC(=O)c2c(=O)c3ccc(N4CCCN(C)CC4)nc3n3c2sc2ccccc23)cn1, the pIC50 (second compound 0.0316 µM) was 7.22, the pIC50 (second compound 0.1 µM) was > 7.50 and the pIC50 (second compound 0.316 µM) was > 7.50. The pIC50 (second compound 1 µM) was > 7.50, the pIC50 (second compound 3.16 µM) was > 7.50 and the pIC50 (second compound 10 µM) was > 7.50. For the same compound, the viability, T/C [1] was 71%, the viability, T/C [2] was 30.1% and the viability, T/C [3] was 21.9%. For the same compound, the viability, T/C [4] was 4.72%, the viability, T/C [5] was 0.41% and the viability, T/C [6] was 2.74%. It also gave a viability, T/C [7] of 50.4%, a viability, T/C [8] of 27.2% and a viability, T/C [9] of 20.9%. It also gave a viability, T/C [10] of 10.3%, a viability, T/C [11] of 0.59% and a viability, T/C [12] of 2.89%. For the same compound, the viability, T/C [13] was 28.2%, the viability, T/C [14] was 23.7% and the viability, T/C [15] was 18.5%. The viability, T/C [16] was 8.18%, the viability, T/C [17] was 0.4% and the viability, T/C [18] was 1.91%. It also gave a viability, T/C [19] of 19.8%, a viability, T/C [20] of 25.2% and a viability, T/C [21] of 13.7%. It also gave a viability, T/C [22] of 3.8%, a viability, T/C [23] of 0.09% and a viability, T/C [24] of 0.32%. For the same compound, the viability, T/C [25] was 26.7%, the viability, T/C [26] was 25.6% and the viability, T/C [27] was 15.1%. It also gave a viability, T/C [28] of 0.12%, a viability, T/C [29] of 0.12% and a viability, T/C [30] of 0.15%. It also gave a viability, T/C [31] of 0.07%, a viability, T/C [32] of 0.14% and a viability, T/C [33] of 0.22%. It also gave a viability, T/C [34] of 0.15%, a viability, T/C [35] of 0.2% and a viability, T/C [36] of 0.21%.
With `Nc1ccn(C2OC(CO)C(O)C2(F)F)c(=O)n1` (stereo unspecified) + Cc1cnc(CNC(=O)c2c(=O)c3ccc(N4CCCN(C)CC4)nc3n3c2sc2ccccc23)cn1 the pIC50 (second compound 0.0316 µM) was > 7.50, the pIC50 (second compound 0.1 µM) was > 7.50 and the pIC50 (second compound 0.316 µM) was > 7.50. For the same compound, the pIC50 (second compound 1 µM) was > 7.50, the pIC50 (second compound 3.16 µM) was > 7.50 and the pIC50 (second compound 10 µM) was > 7.50. The viability, T/C [1] was 11.4%, the viability, T/C [2] was 3.66% and the viability, T/C [3] was 4.41%. It also gave a viability, T/C [4] of 3.92%, a viability, T/C [5] of 3.56% and a viability, T/C [6] of 4.33%. The viability, T/C [7] was 8.53%, the viability, T/C [8] was 4.24% and the viability, T/C [9] was 3.88%. For the same compound, the viability, T/C [10] was 5.21%, the viability, T/C [11] was 4.05% and the viability, T/C [12] was 3.9%. For the same compound, the viability, T/C [13] was 8.35%, the viability, T/C [14] was 8.14% and the viability, T/C [15] was 5.18%. It also gave a viability, T/C [16] of 2.76%, a viability, T/C [17] of 5.29% and a viability, T/C [18] of 4.05%. The viability, T/C [19] was 9.41%, the viability, T/C [20] was 7.02% and the viability, T/C [21] was 3.55%. For the same compound, the viability, T/C [22] was 3.31%, the viability, T/C [23] was 4.27% and the viability, T/C [24] was 3.59%. For the same compound, the viability, T/C [25] was 4.08%, the viability, T/C [26] was 0.41% and the viability, T/C [27] was 0.15%. For the same compound, the viability, T/C [28] was 0.1%, the viability, T/C [29] was 0.12% and the viability, T/C [30] was 0.14%. It also gave a viability, T/C [31] of 0.09%, a viability, T/C [32] of 0.15% and a viability, T/C [33] of 0.14%. It also gave a viability, T/C [34] of 0.11%, a viability, T/C [35] of 0.15% and a viability, T/C [36] of 0.16%.
For `O=c1[nH]cc(F)c(=O)[nH]1` + Cc1cnc(CNC(=O)c2c(=O)c3ccc(N4CCCN(C)CC4)nc3n3c2sc2ccccc23)cn1, the pIC50 (second compound 0.0316 µM) was < 5.00, the pIC50 (second compound 0.1 µM) was < 5.00 and the pIC50 (second compound 0.316 µM) was > 7.50. For the same compound, the pIC50 (second compound 1 µM) was > 7.50, the pIC50 (second compound 3.16 µM) was > 7.50 and the pIC50 (second compound 10 µM) was > 7.50. It also gave a viability, T/C [1] of 90.9%, a viability, T/C [2] of 75.9% and a viability, T/C [3] of 87.1%. For the same compound, the viability, T/C [4] was 69.5%, the viability, T/C [5] was 59.4% and the viability, T/C [6] was 52.1%. The viability, T/C [7] was 68.3%, the viability, T/C [8] was 70.2% and the viability, T/C [9] was 54.4%. For the same compound, the viability, T/C [10] was 66.3%, the viability, T/C [11] was 51.1% and the viability, T/C [12] was 56.8%. For the same compound, the viability, T/C [13] was 30%, the viability, T/C [14] was 27.2% and the viability, T/C [15] was 23.6%. It also gave a viability, T/C [16] of 19.8%, a viability, T/C [17] of 38% and a viability, T/C [18] of 36.1%. For the same compound, the viability, T/C [19] was 29.9%, the viability, T/C [20] was 28.4% and the viability, T/C [21] was 26.4%. The viability, T/C [22] was 28%, the viability, T/C [23] was 23.1% and the viability, T/C [24] was 27.6%. The viability, T/C [25] was 23.5%, the viability, T/C [26] was 27.8% and the viability, T/C [27] was 22.4%. The viability, T/C [28] was 20.4%, the viability, T/C [29] was 29.4% and the viability, T/C [30] was 24.1%. The viability, T/C [31] was 0.1%, the viability, T/C [32] was 0.16% and the viability, T/C [33] was 0.21%. It also gave a viability, T/C [34] of 0.13%, a viability, T/C [35] of 0.19% and a viability, T/C [36] of 0.16%.
